Series [1] concerns Salmonella typhimurium TA98. Nature of the series: Reverse mutation assay (Ames test), TA98. The settings on record: for Increase in the number of revertants compared to the concurrent solvent control: TA98, presence of 5% S9-mix, 10–100 µg; for Mutagenicity (conclusion): TA98, positive if more than threefold over control; for His + revertant colonies TA98 without S9-mix: mean ± SD of 3 plates. As for the experimental part: Six concentrations of each compound were tested in triplicate in the absence and presence of 5% (v/v) S9-mix prepared from the livers of Aroclor 1254 treated Sprague–Dawley rats. The S9-mix contained 4 mM NADP, 5.8 mM glucose-6-phosphate, 0.1 M sodium phosphate pH 7.4, 8 mM MgCl2, 33 mM KCl and 5% S9 homogenate. Fresh bacterial cultures were prepared overnight to reach 10^9 cells/ml. The following solutions were pre-incubated in a rotating incubator at 70 rpm and 37 °C, and contained either 0.5 ml S9-mix (in case of S9 presence) or 0.5 ml 0.1 M potassium phosphate pH 7.4 (in case of S9 absence), 0.1 ml of a fresh bacterial culture (10^9 cells/ml) of TA98 or TA100, […] Top agar was melted and heated to 45 °C. After preincubation, the substrate solutions were added to 3 ml of the molten top agar and mixed by vortexing and the top agar mixture was poured onto a minimal glucose agar plate. After solidification of the top agar, the plates were incubated at 37 °C for 48 h. The number of revertant colonies per plate was automatically counted with the Instem Sorcerer Colony Counter (Staffordshire, UK). In the absence of S9-mix, 2-nitrofluorene (NF) and methylmethanesulfonate (MMS) were tested as positive controls for incubations with TA98 and TA100, respectively. In the presence of S9-mix, 2-aminoanthracene (2AA) was tested as a positive control in both TA98 and TA100. DMSO was tested as a solvent control in both tester strains.
For orientation: In the Ames test, an excess of revertant colonies over the control signals mutagenicity.

Series [2] has as its system human liver microsomes (HLM). Kind of series: Human liver microsomal incubation, metabolite formation quantified by UPLC. Particulars: HLM. As for the experimental part: (§1) The incubation mixtures were prepared and incubated in glass vials to avoid plastic binding of the substrates. The glass vials were capped to prevent substrate loss due to volatility. After preincubation of the incubation mixture at 37 °C for 1 min, the enzymatic reaction was initiated by adding microsomes to the incubation mixture which was subsequently incubated at 37 °C for 20 min. The reaction was terminated by adding 100 µl ice-cold acetonitrile followed by vortexing. After 5 min centrifugation at 5000 rpm (4000 × g), 4 °C, the supernatant was collected for ultraperformance liquid chromatography (UPLC) analysis. […] Therefore, a diisopropylether (DIPE) extraction of the metabolites was performed after the reaction was stopped by the addition of 20 µl 10% HClO4. To this end, the incubation mixture (total volume of 220 µl) was extracted three times with 1 ml DIPE. Each time, the upper organic layer was collected and the DIPE was subsequently evaporated from the combined organic fractions with a gentle stream of nitrogen. The residues were dissolved in 100 µl methanol and analyzed by UPLC.
(§2) The metabolites formed were analyzed and quantified using an Acquity UPLC system equipped with a photodiode array (PDA) detector (Waters, Milford, MA). The metabolites and their parent compound were separated on a reverse phase Acquity UPLC® BEH C18 column ([…], 1.7 µm, Waters, Milford, MA) and detected at wavelengths ranging from 190 to 400 nm. Eluent A was nano-pure water containing 0.1% trifluoroacetic acid (v/v), and eluent B was acetonitrile containing 0.1% trifluoroacetic acid (v/v). The gradient elution started from 90% A and 10% B applied from 0.0 min to 0.5 min, which was changed to 0% A and 100% B from 0.5 to 15.5 min and then kept at 0% A and 100% B from 15.5 min to 18.5 min, changed back to 90% A and 10% B from 18.5 to 18.6 min and then maintained at the starting conditions from 18.6 min until 22 min. The total run time was 22 min using a flow rate of 0.6 ml/min. The temperature of the column was set at 40 °C and that of the autosampler at 10 °C during the UPLC analysis. The injection volume was 3.5 µl. Metabolites were quantified using their peak area at the wavelength specified in Table 1, using calibration curves of available reference compounds. Metabolites were identified by comparing their retention time (RT) and UV spectrum to those of reference chemicals on UPLC. When reference chemicals were not available, metabolite identification by gas chromatography-triple quadrupole mass spectrometry (GC–MS/MS) was performed. The minor metabolites were identified by elution time and mass spectra both on UPLC and GC–MS/MS, and by comparison with available elution and spectral information from the literature.
(§3) The metabolite concentrations in the microsomal incubation mixtures as quantified by UPLC were used to calculate the rate of the enzymatic conversions in pmol/min/mg microsomal protein. The kinetic parameters KM and Vmax were obtained using a nonlinear regression curve fit applying the Michaelis Menten equation in GraphPad Prism 5 (San Diego, USA). To compare the catalytic efficiency of formation of the different metabolites the intrinsic clearance (Clint) was calculated as Vmax divided by KM.
(Liver microsomes are a subcellular fraction often used to study metabolism.)

The test system of series [3] is mouse skin. Set-up: method as in Buening et al. [1979]; LaVoie et al. [1981]. Particulars: mouse skin painting; ref Buening et al. [1979]; LaVoie et al. [1981]; cited from earlier work.
In series [4] the test system is Salmonella typhimurium TA100. Nature of the series: Reverse mutation assay (Ames test), TA100. Particulars: for His + revertant colonies TA100 without S9-mix: mean ± SD of 3 plates; for Cytotoxicity at the test doses: TA100, absence of S9 mix; for Increase in the number of revertants compared to the concurrent solvent control: TA100, presence of 5% S9-mix, 10–100 µg; for Mutagenicity (conclusion): TA100, positive if more than twofold over control. As for the experimental part:
Six concentrations of each compound were tested in triplicate in the absence and presence of 5% (v/v) S9-mix prepared from the livers of Aroclor 1254 treated Sprague–Dawley rats. The S9-mix contained 4 mM NADP, 5.8 mM glucose-6-phosphate, 0.1 M sodium phosphate pH 7.4, 8 mM MgCl2, 33 mM KCl and 5% S9 homogenate. Fresh bacterial cultures were prepared overnight to reach 10^9 cells/ml. The following solutions were pre-incubated in a rotating incubator at 70 rpm and 37 °C, and contained either 0.5 ml S9-mix (in case of S9 presence) or 0.5 ml 0.1 M potassium phosphate pH 7.4 (in case of S9 absence), 0.1 ml of a fresh bacterial culture (10^9 cells/ml) of TA98 or TA100, and 10–100 µg test compound. Top agar was melted and heated to 45 °C. After preincubation, the substrate solutions were added to 3 ml of the molten top agar and mixed by vortexing and the top agar mixture was poured onto a minimal glucose agar plate. After solidification of the top agar, the plates were incubated at 37 °C for 48 h. The number of revertant colonies per plate was automatically counted with the Instem Sorcerer Colony Counter (Staffordshire, UK). In the absence of S9-mix, 2-nitrofluorene (NF) and methylmethanesulfonate (MMS) were tested as positive controls for incubations with TA98 and TA100, respectively. In the presence of S9-mix, 2-aminoanthracene (2AA) was tested as a positive control in both TA98 and TA100. DMSO was tested as a solvent control in both tester strains.

Series [5] has as its system rat liver microsomes (RLM). Kind of series: Rat liver microsomal incubation, metabolite formation quantified by UPLC. Particulars: RLM. As for the experimental part: as §1, §2, §3

As to `Cc1ccc2c(ccc3ccccc32)c1` [2-Methylphenanthrene], in series [1], the “Increase in the number of revertants compared to the concurrent solvent control” value (from here on “Increase in the number of revertants”) is reported as 2.2 fold and the “Mutagenicity (conclusion)” value is given as “non-mutagenic”. In series [2] (substrate 2-Methylphenanthrene), the “Vmax, formation of 2-(Hydroxymethyl)-phennathrene RT = 5.59 min” value is listed as 562.0 ± 27.5 pmol/min/mg microsomal protein; the “Vmax, formation of 2-Methylphenanthrol RT = 6.12 min” value is on record as 16.3 ± 0.8 pmol/min/mg microsomal protein; the “Vmax, formation of Dihydro-2-methylphenanthrene-diol RT = 3.09 min” value is recorded as 6.4 ± 0.5 pmol/min/mg microsomal protein. Also, the Tumor-initiating activity entry in series [3] is “neither phenanthrene nor its monomethylated analogs”. Besides, the “His + revertant colonies TA100 without S9-mix” value in series [4] (10 µg/plate) is 106±20. The “His + revertant colonies TA100 without S9-mix” value in series [4] (20 µg/plate) is given as 98±13. Moreover, the “His + revertant colonies TA100 without S9-mix” value in series [4] (40 µg/plate) is listed as 70±8. For the same compound, in series [4], the “Cytotoxicity at the test doses” value is “showed cytotoxicity”, the “Increase in the number of revertants” value was “no increased response was found” and the “Mutagenicity (conclusion)” value was “non-mutagenic”. Besides, in series [5] (substrate 2-Methylphenanthrene), the “Vmax, formation of 2-(Hydroxymethyl)-phennathrene RT = 5.59 min” value was 2174 ± 115.3 pmol/min/mg microsomal protein; the “Vmax, formation of 2-Methylphenanthrol RT = 6.98 min” value is listed as 76.0 ± 3.1 pmol/min/mg microsomal protein; the “Vmax, formation of 2-Methylphenanthrol RT = 7.08 min” value was 11.2 ± 0.9 pmol/min/mg microsomal protein; the “Vmax, formation of Dihydro-2-methylphenanthrene-diol RT = 4.26 min” value is on record as 23.1 ± 2.7 pmol/min/mg microsomal protein. For the same compound, the “Vmax, formation of Dihydro-2-methylphenanthrene-diol RT = 4.42 min” value in series [5] (substrate 2-Methylphenanthrene) is recorded as 16.2 ± 2.5 pmol/min/mg microsomal protein. For the same compound, the “Vmax, formation of 2-Methylphenanthrol RT = 6.12 min” value in series [5] (substrate 2-Methylphenanthrene, KM NA) is reported as 90.7 ± 3.8 pmol/min/mg microsomal protein.

For `Cc1ccc2ccc3ccccc3c2c1` [3-Methylphenanthrene], the “His + revertant colonies TA98 without S9-mix” value amounted to 16±3 in series [1] (2 µg/plate); 17±4 in series [1] (4 µg/plate); 14±1 in series [1] (10 µg/plate); 13±2 in series [1] (20 µg/plate); 9±4 in series [1] (40 µg/plate). Further, the “Cytotoxicity at the test doses” value in series [1] (TA98, absence of S9 mix) is on record as “showed cytotoxicity”; in series [4] it was “showed cytotoxicity”. Further, the “Increase in the number of revertants” value is 2.2 fold in series [1] and “no increased response was found” in series [4]. Moreover, the “Mutagenicity (conclusion)” value in series [1] and in series [4] was “non-mutagenic” throughout. For the same compound, the Bacterial background lawn result in series [1] (TA98 without S9-mix, 40 µg/plate) is given as “S”. For the same compound, the entries for the “Vmax, formation of 3-(Hydroxymethyl)-phenanthrene RT = 5.62 min” value in series [2] (substrate 3-Methylphenanthrene) and in series [5] (substrate 3-Methylphenanthrene) were 583.8 ± 19.6 pmol/min/mg microsomal protein and 2593 ± 305 pmol/min/mg microsomal protein, respectively. Moreover, the “Vmax, formation of Dihydro-3-methylphenanthrene-diol RT = 4.25 min” value is recorded as 65.0 ± 4.1 pmol/min/mg microsomal protein in series [2] (substrate 3-Methylphenanthrene) and 92.3 ± 25.1 pmol/min/mg microsomal protein in series [5] (substrate 3-Methylphenanthrene). In addition, the “Vmax, formation of Dihydro-3-methylphenanthrene-diol RT = 4.42 min” value in series [2] (substrate 3-Methylphenanthrene) is given as 12.8 ± 0.8 pmol/min/mg microsomal protein; in series [5] (substrate 3-Methylphenanthrene) it was 20.4 ± 1.7 pmol/min/mg microsomal protein. Also, the Tumor-initiating activity entry in series [3] is listed as “neither phenanthrene nor its monomethylated analogs”. For the same compound, the “His + revertant colonies TA100 without S9-mix” value in series [4] (2 µg/plate) came out at 112±14; in series [4] (4 µg/plate), 112±9; in series [4] (10 µg/plate) it was 119±11; in series [4] (20 µg/plate) it was 83±34; in series [4] (40 µg/plate), 75±4. In series [5] (substrate 3-Methylphenanthrene), the “Vmax, formation of 3-Methylphennathrol RT = 6.98 min” value is 82.6 ± 53.8 pmol/min/mg microsomal protein.

Source of the values: paper PMC8921064 (Archives of Toxicology, 2022).
